From a melting point compilation (Tetko et al.; mined from patent text by program, amines drawn as free bases though some values may be those of a salt)

Row | melting point [°C] | SMILES
1 | 123 to 124 | COc1cc(NCCCCCCN2C(=O)c3ccccc3C2=O)c2ncccc2c1
2 | 110 to 112 | CN1CCC(Oc2ccc(C(=O)NN)cc2)CC1
3 | 139 to 145 | CCOC(=O)C1C(C)C=CC(NC(=O)OC(C)(C)C)C1[N+](=O)[O-] (configuration not stated)
4 | 166 to 168 | Cc1ncc(-c2ccc([C@H](C)N3CC[C@](CCCO)(c4ccc(F)cc4)OC3=O)cc2)cn1
5 | 123 to 125 | CC1(C)C=C(N2CCCC2=O)c2cc(Cl)ccc2O1
6 | 121 to 124 | CC(CC(=O)O)Oc1ccc(Oc2ccccc2)c(NS(C)(=O)=O)c1 (configuration not stated)
7 | 104 | COc1ccc(/C=C/C(=O)/C=C/C(=O)O)cc1
8 | 118 to 119 | Cc1on(C(=O)N(Cc2ccccc2)c2ccccc2)c(=O)c1Cl
9 | 225 to 227 | CNc1ccc(-c2nc3c4ccccc4ccc3n2C)cc1
10 | 112 to 114 | COc1cnc(N)c2ccccc12
11 | 253 to 256 | O=C(NCCC1CCCCC1)c1c(Cl)ccc2nc(N3CCC(C(=O)O)CC3)ccc12
12 | 101 to 103 | COC(=O)c1ccc(C(=O)NCc2cc(OC)cc(OC)c2)cc1Cl
13 | 181 to 183 | COc1ccc(Cl)cc1C(=O)NC1COc2cc(OC)c(S(=O)(=O)NC(=O)NC(C)C)cc2C1 (configuration not stated)
14 | 144 to 147 | O=C(O)c1ccc2[nH]cc(CCCCN3CCCC(Cc4ccccc4)C3)c2c1 (configuration not stated)
15 | 142 to 144 | Nc1ncnc2c1ncn2CCCN1CCC(COc2ccccc2)CC1
16 | 217 to 218 | COc1ccc(CNc2nnc(Cl)c3ccc([N+](=O)[O-])cc23)cc1Cl
17 | 196 to 199 | O=C(Nc1ccccc1)C12CC3CC(CC(C3)C1)C2
18 | 261 | CC(C)c1nc2[nH]c(=O)ccc2c(-c2ccc(F)cc2)c1/C=C/C=O
19 | 138 to 140 | O=C(NC1=NN(c2ccc(Cl)cc2)C(c2ccc(Cl)cc2)C1)C(F)(F)F (configuration not stated)
20 | 117 to 118 | CS(=O)c1ccc(C2=C(Br)C(=O)C(C)(C)O2)cc1 (configuration not stated)
21 | 187 to 188 | Cc1c(Br)c2c(c(C)c1NC(=O)OC(C)(C)C)C(O)C(C)(C)O2 (configuration not stated)
22 | 130 to 131 | O=C1Nc2cccc(-c3cccc(NC(=O)c4ccc(F)cc4)c3)c2/C1=C/c1ccc[nH]1
23 | 112 to 114 | CC(C)(C)OC(=O)N1CCC(CCN2C(=O)c3ccccc3C2=O)CC1
24 | 100 to 102 | O=[N+]([O-])c1nccnc1NCC(O)CO (configuration not stated)
25 | 146 | CCCNc1nc(=O)c(C)cn1C1CC(N=[N+]=[N-])C(CO)O1 (configuration not stated)

Row | melting point [°C] | SMILES
26 | 127 to 128 | Cc1ccc(-c2ncncc2C#N)cc1
27 | 175 to 176 | CNC(=S)NS(=O)(=O)c1cc(CCNC(=O)/C=C/c2cccs2)ccc1-c1ccco1
28 | 120 | Cc1cc(-c2cncc(OC3SCC(O)C(O)C3O)c2)ccn1 (configuration not stated)
29 | 288 to 290 | COC(=O)c1ccccc1SSc1ccccc1C(=O)Nc1ccc(S(N)(=O)=O)cc1
30 | > 250 | CC(C)C1=C(C#N)C(c2cccc(C#N)c2Br)c2c[nH]nc2N1 (configuration not stated)
31 | 78 to 82 | CCCCC1CCCCCc2c1oc(=O)c(C(c1ccccc1)C1CC1)c2O (configuration not stated)
32 | 98 to 99 | Cc1ccn(-c2ccc(S(C)(=O)=O)cc2)c1-c1ccc(OC(F)F)cc1
33 | 72 to 73 | COCCCc1cc(N(C)Cc2ccc(-c3ccc(C(F)(F)F)cc3)nc2C)ccc1OCC(=O)O
34 | 143 to 146 | CCC(=O)c1cnc2c(O)cccc2c1Nc1ccc(F)cc1C
35 | 300 to 302 | CCOC(=O)c1cc2c3n(ccc-2n1)C([N+](=O)[O-])C(C)=N3 (configuration not stated)
36 | 280 to 283 | COc1cc2c(cc1Cl)NC(=O)c1ccccc1S2
37 | 192 to 194 | O=C(/C=C/c1c[nH]c2ccccc12)c1cccnc1
38 | 145 to 147 | O=C(O)CC(CC(=O)O)c1ccc(F)cc1
39 | 158 to 160 | Cc1ccc(S(=O)(=O)ON=C2CCCc3c2ccc(OCc2ccccc2)c3N(C)C(=O)OCc2ccccc2)cc1
40 | 184 | CCCn1ccn(-c2ccc(N3CCN(c4ccc(OC)cc4)CC3)cc2)c1=O
41 | 113 to 115 | CN1CCCC1=NC(=O)Nc1ccc(F)cc1
42 | 150 to 152 | CN(CC1Nc2cc(Cl)c(S(N)(=O)=O)cc2S(=O)(=O)N1)C(=O)CBr (configuration not stated)
43 | 191 to 192 | CN(C)Cc1c(-c2ccccc2)[nH]c2nccnc12
44 | 251 to 252 | COc1cccc([C@H]2O[C@H](CC(=O)Nc3nc(C)c(C(=O)O)s3)C(=O)N(CC(C)(C)CO)c3ccc(Cl)cc32)c1OC
45 | 150 to 153 | COc1ccc(CN(C)C(=O)c2c(-c3ccncc3)c(-c3ccc(F)cc3)nn2C)cc1
46 | 141 to 143 | C=CCc1cc(C)c2c(c1O)C(C)(C)C(=O)N2
47 | 168 to 170 | C=C1C(O)C(CO)OC1n1cc(Cl)c(N)nc1=O (configuration not stated)
48 | 165 to 166 | NC(=NCC(F)(F)F)Nc1ccnc(SCCCNC=O)n1
49 | 73 | Cc1cc(C)cc(-c2cnn3c(-c4cccc(-c5nnn(Cc6cccnc6)n5)c4)ccnc23)c1
50 | 226 to 228 | CN1CCN(C2=NC(=O)C(=Cc3cccc(-c4cc(F)c(O)c(C56CC7CC(CC(C7)C5)C6)c4)c3)S2)CC1

Row | melting point [°C] | SMILES
51 | 238 | CCCCc1nc(=O)n2nc(-c3ccc(F)cc3)cc2[nH]1
52 | 181 to 182 | CCCCn1c(C)cc(=O)n(C)c1=O
53 | 272 | Nc1ncnc2[nH]cc(-c3ccc(Oc4ccccc4)cc3)c12
54 | 208 to 209 | C#CCOc1nc(Nc2cc(N)cc(C(=O)OC)c2)ncc1Br
55 | 72 to 74 | CCn1nc(-c2ccccc2F)nc1-c1ccccc1C(F)(F)F
56 | 254 | CNC(=O)Nc1coc2ccccc2c1=O
57 | 88 to 90 | O=C(O)c1cc(=O)c2c(OCC(O)COc3ccccc3)cccc2o1 (configuration not stated)
58 | 95 | CCN(CC)c1ccc(-c2cc(-c3ccc(C(=O)O)cc3)ccc2CCCO)cc1C(C)(C)C
59 | 103 to 107 | COc1ccc(NC(=O)c2ccc(C(C)(C)C)cc2)c([N+](=O)[O-])c1
60 | 150 to 151 | CN(CCNc1ccc2ncc(-c3ccccc3)n2n1)C(=O)OC(C)(C)C
61 | 126 to 127 | CCN(CC)CCCCC1CCN(C(=O)N2c3ccccc3C(=O)Nc3cccnc32)CC1
62 | 276 to 280 | COc1ccc(OC)c(C#N)c1C#N
63 | 134 to 141 | Cc1cc(C(=O)NC2CCCCC2)ccc1[N+](=O)[O-]
64 | 78 to 81 | COC(=O)c1cc[nH]c1
65 | 74.5 to 75 | CC(CO)(CO)OCc1ccccc1F
66 | 250 to 260 | Cc1ccc(F)cc1C(=O)Nc1ccc(C(=O)N2Cc3ccnn3Cc3ccccc32)cn1
67 | 77 to 79 | CCN(CC)C(=O)n1cnc(S(=O)(=O)CC2CCCC2)n1
68 | 263 to 265 | CC(C)C(NS(=O)(=O)c1ccc(-c2ccc(NC(=O)c3cc4cc(Br)ccc4o3)cc2)cc1)C(=O)O (configuration not stated)
69 | 170 to 172 | Cc1noc2c(Oc3ncccc3C(=O)NCC3CCC(C(C)(C)O)CC3)cccc12 (configuration not stated)
70 | 81 to 82 | O=C(Cc1ccc(F)cc1F)c1ccc(I)cc1F
71 | 108 | Oc1ccc(CCc2cccc(O)c2)cc1
72 | 99.5 to 102 | COC(=O)/C=C/C=C(\c1ccc(OC)cc1)c1ccccc1OC
73 | 153 to 154 | CCCc1ccc(S(=O)(=O)NN2CCN(C)CC2)cc1
74 | 113 to 115 | COc1ccc2cccnc2c1O
75 | 109 to 111 | CC(C)Oc1c(-c2ccc(S(C)(=O)=O)cc2)cnn(Cc2ccccc2)c1=O

Row | melting point [°C] | SMILES
76 | > 300 | O=C1c2ccccc2-c2c1[nH]c(=O)c1ccccc21
77 | 252 to 254 | Nc1ccc(-c2ccncc2)nc1N
78 | 116 to 118 | C=CCN1CCc2c(sc(N)c2C(=O)c2ccc(Br)cc2)C1
79 | 85 to 87 | CCOC(=O)OC1Oc2ccc(OS(C)(=O)=O)cc2C1(C)C (configuration not stated)
80 | 177 to 179 | COc1ccc(N2CCN(c3c(C)c(C)c4c(c3-c3ccc(N(C)C)cc3)CC(C)(C)O4)CC2)cc1
81 | 130 | C=CCCCn1nnc(-c2ccc3[nH]c(CCCC)nc(=O)c3c2)n1
82 | 197 | COc1ccc2sc(C(=O)O)c(Oc3ccccc3)c2c1
83 | 64 to 65 | CCc1c(-c2ccccc2)ncc2c(N3CCCCC3)nnc(N3CCCCC3)c12
84 | 181 to 192 | NC(Cc1nc2cc(Cl)ccc2nc1CP(=O)(O)O)C(=O)O (configuration not stated)
85 | 69 to 70 | CC(=O)N1CCSc2ccccc2C1
86 | 258 to 260 | Nc1nc2c(ncn2OCC(O)CP(=O)(O)O)c(=O)[nH]1 (configuration not stated)
87 | 118 to 120 | Nc1ncccc1-c1nc2ccc(-c3ccc(CO)cc3)nc2n1-c1ccc(CNC(=O)c2ccccc2)cc1
88 | 186 to 188 | Cc1ccc(S(=O)(=O)C2(CC#Cc3ccc(Cl)cc3)CC(=O)NC2=O)cc1 (configuration not stated)
89 | 209 to 211 | CN(C)CC=CC(=O)Nc1ccc2ncc(C#N)c(Nc3cccc(Br)c3)c2c1
90 | 195 to 196 | COc1ccc(-c2cccs2)cc1/C=C/C(=O)c1ccc(C(=O)O)cc1
91 | 243 to 244 | Cc1ccc2c3c(ccc2n1)OCC(CNCC1CCc2[nH]c4cc(Cl)c(F)cc4c2C1)O3 (configuration not stated)
92 | 170 to 176 | CCn1cc(-c2nnnn2C)c(=O)c2ccccc21
93 | 197 to 198 | COc1ccccc1S(=O)(=O)N(C)c1cccc2cc(C3=NCC(CC(=O)O)S3)[nH]c12 (configuration not stated)
94 | 177 to 178 | O=C1CCN(C(=O)c2ccc(Cl)cc2Cl)c2ccc(Cl)cc21
95 | 139 | CCOC(=O)C=Cc1cnn2c(N(C)c3ccccc3)ncnc12
96 | 73.5 to 75 | CCN(CC)CCOc1cccc2c1c1cccc(Cl)c1n2Cc1ccccc1
97 | 119 to 120 | CN1C2=NCCCN2C(=O)c2cc(Cl)ccc21

Row | SMILES | melting point [°C]
98 | c1ccc(N2c3ccccc3[C@@H]3CN(CC4CCC4)CC[C@H]32)cc1 | 76.5 to 77
99 | CC(c1ccccc1)n1cncc1C(N)=O (configuration not stated) | 136 to 137
100 | Cc1cc(C2=NOC(c3cc(Cl)cc(Cl)c3)(C(F)(F)F)C2)ccc1C(=O)NCc1ccccn1 (configuration not stated) | 131 to 136
101 | CC(C)N1NN=C(c2cn(C)c3ccccc3c2=O)N1 | 134 to 137
102 | CCCc1c(C(=O)CCl)c2ccc(C(=O)OC)cc2n1Cc1ccccc1Cl | 143 to 145
